Source: PubChem BioAssay AID2060886 (Molecular Pharmacology Branch, DTP, NCI, 2025)

System: 653999-131-R-J2-PDC complex spheroids, growth inhibition
Assay: Anticancer human tumor 653999-131-R-J2-PDC patient-derived lung adenocarcinoma cell line growth inhibition [RAS]
Details: for IC50: curve of first compound; for viability, T/C: stronger effect = lower value
In short: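 Tumour cells grown as complex spheroids with HUVEC endothelial cells and mesenchymal stem cells, treated with RAS pathway inhibitor combinations. Each agent spans half-log steps from near clinical Cmax, or 10 microM where Cmax is unknown.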

[1] = second compound 0.000949 µM, first compound 0.0316 µM
[2] = second compound 0.000949 µM, first compound 0.1 µM
[3] = second compound 0.000949 µM, first compound 0.316 µM
[4] = second compound 0.000949 µM, first compound 1 µM
[5] = second compound 0.000949 µM, first compound 3.16 µM
[6] = second compound 0.000949 µM, first compound 10 µM
[7] = second compound 0.003 µM, first compound 0.0316 µM
[8] = second compound 0.003 µM, first compound 0.1 µM
[9] = second compound 0.003 µM, first compound 0.316 µM
[10] = second compound 0.003 µM, first compound 1 µM
[11] = second compound 0.003 µM, first compound 3.16 µM
[12] = second compound 0.003 µM, first compound 10 µM
[13] = second compound 0.00949 µM, first compound 0.0316 µM
[14] = second compound 0.00949 µM, first compound 0.1 µM
[15] = second compound 0.00949 µM, first compound 0.316 µM
[16] = second compound 0.00949 µM, first compound 1 µM
[17] = second compound 0.00949 µM, first compound 3.16 µM
[18] = second compound 0.00949 µM, first compound 10 µM
[19] = second compound 0.03 µM, first compound 0.0316 µM
[20] = second compound 0.03 µM, first compound 0.1 µM
[21] = second compound 0.03 µM, first compound 0.316 µM
[22] = second compound 0.03 µM, first compound 1 µM
[23] = second compound 0.03 µM, first compound 3.16 µM
[24] = second compound 0.03 µM, first compound 10 µM
[25] = second compound 0.0949 µM, first compound 0.0316 µM
[26] = second compound 0.0949 µM, first compound 0.1 µM
[27] = second compound 0.0949 µM, first compound 0.316 µM
[28] = second compound 0.0949 µM, first compound 1 µM
[29] = second compound 0.0949 µM, first compound 3.16 µM
[30] = second compound 0.0949 µM, first compound 10 µM
[31] = second compound 0.3 µM, first compound 0.0316 µM
[32] = second compound 0.3 µM, first compound 0.1 µM
[33] = second compound 0.3 µM, first compound 0.316 µM
[34] = second compound 0.3 µM, first compound 1 µM
[35] = second compound 0.3 µM, first compound 3.16 µM
[36] = second compound 0.3 µM, first compound 10 µM
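Also: spheroids exposed to the agents for seven days before the readout.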

## CC1(O)CCCC1n1c(=O)c(C(F)F)cc2cnc(NC3CCN(S(C)(=O)=O)CC3)nc21 (stereo unspecified) + CCn1c(-c2cc(N3CCN(C)CC3)cnc2C(C)OC)c2c3cc(ccc31)-c1csc(n1)CC(NC(=O)C1CC1C)C(=O)N1CCCC(N1)C(=O)OCC(C)(C)C2
Second compound 0.000949 µM
  IC50: 8400 nM
Second compound 0.003 µM
  IC50: 57.9 nM
Second compound 0.00949 µM
  IC50: < 31.6 nM
Second compound 0.03 µM
  IC50: < 31.6 nM
Second compound 0.0949 µM
  IC50: < 31.6 nM
Second compound 0.3 µM
  IC50: < 31.6 nM
[1]
  viability, T/C: 67.8%
[2]
  viability, T/C: 48.4%
[3]
  viability, T/C: 57.4%
[4]
  viability, T/C: 49%
[5]
  viability, T/C: 73%
[6]
  viability, T/C: 37.7%
[7]
  viability, T/C: 52.4%
[8]
  viability, T/C: 49.5%
[9]
  viability, T/C: 40.1%
[10]
  viability, T/C: 49.9%
[11]
  viability, T/C: 47.2%
[12]
  viability, T/C: 38.5%
[13]
  viability, T/C: 43%
[14]
  viability, T/C: 28.5%
[15]
  viability, T/C: 28.5%
[16]
  viability, T/C: 28.1%
[17]
  viability, T/C: 39%
[18]
  viability, T/C: 29.1%
[19]
  viability, T/C: 36.6%
[20]
  viability, T/C: 23.9%
[21]
  viability, T/C: 25.8%
[22]
  viability, T/C: 24.9%
[23]
  viability, T/C: 30.7%
[24]
  viability, T/C: 20%
[25]
  viability, T/C: 27.2%
[26]
  viability, T/C: 20.3%
[27]
  viability, T/C: 18.8%
[28]
  viability, T/C: 19.4%
[29]
  viability, T/C: 26.7%
[30]
  viability, T/C: 24.7%
[31]
  viability, T/C: 19.2%
[32]
  viability, T/C: 18.5%
[33]
  viability, T/C: 25.2%
[34]
  viability, T/C: 20.8%
[35]
  viability, T/C: 20.3%
[36]
  viability, T/C: 21%

## CCc1c2c(nc3ccc(O)cc13)-c1cc3c(c(=O)n1C2)COC(=O)[C@]3(O)CC + C=CC(=O)N1CCN(c2nc(OCC3CCCN3C)nc3c(F)c(-c4nc(N)cc(C)c4C(F)(F)F)c(Cl)cc23)C(C)C1
Second compound 0.00316 µM
  IC50: 8.57 nM
Second compound 0.01 µM
  IC50: 6.53 nM
Second compound 0.0316 µM
  IC50: 6.41 nM
Second compound 0.1 µM
  IC50: 5.92 nM
Second compound 0.316 µM
  IC50: 5.94 nM
Second compound 1 µM
  IC50: 8.46 nM
Second compound 0.00316 µM, first compound 0.000949 µM
  viability, T/C: 80.2%
Second compound 0.00316 µM, first compound 0.003 µM
  viability, T/C: 58.5%
Second compound 0.00316 µM, first compound 0.00949 µM
  viability, T/C: 53.5%
Second compound 0.00316 µM, first compound 0.03 µM
  viability, T/C: 34.3%
Second compound 0.00316 µM, first compound 0.0949 µM
  viability, T/C: 20.8%
Second compound 0.00316 µM, first compound 0.3 µM
  viability, T/C: 10.2%
Second compound 0.01 µM, first compound 0.000949 µM
  viability, T/C: 88.7%
Second compound 0.01 µM, first compound 0.003 µM
  viability, T/C: 61.9%
Second compound 0.01 µM, first compound 0.00949 µM
  viability, T/C: 44.2%
Second compound 0.01 µM, first compound 0.03 µM
  viability, T/C: 29%
Second compound 0.01 µM, first compound 0.0949 µM
  viability, T/C: 21.5%
Second compound 0.01 µM, first compound 0.3 µM
  viability, T/C: 11.3%
Second compound 0.0316 µM, first compound 0.000949 µM
  viability, T/C: 90.9%
Second compound 0.0316 µM, first compound 0.003 µM
  viability, T/C: 60.8%
Second compound 0.0316 µM, first compound 0.00949 µM
  viability, T/C: 43.8%
Second compound 0.0316 µM, first compound 0.03 µM
  viability, T/C: 30.4%
Second compound 0.0316 µM, first compound 0.0949 µM
  viability, T/C: 20.6%
Second compound 0.0316 µM, first compound 0.3 µM
  viability, T/C: 11.6%
Second compound 0.1 µM, first compound 0.000949 µM
  viability, T/C: 85.8%
Second compound 0.1 µM, first compound 0.003 µM
  viability, T/C: 58.3%
Second compound 0.1 µM, first compound 0.00949 µM
  viability, T/C: 43.1%
Second compound 0.1 µM, first compound 0.03 µM
  viability, T/C: 30.2%
Second compound 0.1 µM, first compound 0.0949 µM
  viability, T/C: 23.7%
Second compound 0.1 µM, first compound 0.3 µM
  viability, T/C: 12.1%
Second compound 0.316 µM, first compound 0.000949 µM
  viability, T/C: 83.9%
Second compound 0.316 µM, first compound 0.003 µM
  viability, T/C: 59.7%
Second compound 0.316 µM, first compound 0.00949 µM
  viability, T/C: 42.5%
Second compound 0.316 µM, first compound 0.03 µM
  viability, T/C: 29.5%
Second compound 0.316 µM, first compound 0.0949 µM
  viability, T/C: 23%
Second compound 0.316 µM, first compound 0.3 µM
  viability, T/C: 11.9%
Second compound 1 µM, first compound 0.000949 µM
  viability, T/C: 84.5%
Second compound 1 µM, first compound 0.003 µM
  viability, T/C: 64.2%
Second compound 1 µM, first compound 0.00949 µM
  viability, T/C: 50.7%
Second compound 1 µM, first compound 0.03 µM
  viability, T/C: 31.2%
Second compound 1 µM, first compound 0.0949 µM
  viability, T/C: 25.3%
Second compound 1 µM, first compound 0.3 µM
  viability, T/C: 14.5%

## CC(=O)OC12COC1CC(O)C1(C)C(=O)C(O)C3=C(C)C(OC(=O)C(O)C(NC(=O)OC(C)(C)C)c4ccccc4)CC(O)(C(OC(=O)c4ccccc4)C21)C3(C)C (stereo unspecified) + CCn1c(-c2cc(N3CCN(C)CC3)cnc2C(C)OC)c2c3cc(ccc31)-c1csc(n1)CC(NC(=O)C1CC1C)C(=O)N1CCCC(N1)C(=O)OCC(C)(C)C2
Second compound 0.000949 µM
  IC50: < 31.6 nM
Second compound 0.003 µM
  IC50: < 31.6 nM
Second compound 0.00949 µM
  IC50: < 31.6 nM
Second compound 0.03 µM
  IC50: < 31.6 nM
Second compound 0.0949 µM
  IC50: < 31.6 nM
Second compound 0.3 µM
  IC50: < 31.6 nM
[1]
  viability, T/C: 38.1%
[2]
  viability, T/C: 39.4%
[3]
  viability, T/C: 42.8%
[4]
  viability, T/C: 43.5%
[5]
  viability, T/C: 48.8%
[6]
  viability, T/C: 51.6%
[7]
  viability, T/C: 29.9%
[8]
  viability, T/C: 27%
[9]
  viability, T/C: 27.6%
[10]
  viability, T/C: 35.4%
[11]
  viability, T/C: 30.9%
[12]
  viability, T/C: 31.7%
[13]
  viability, T/C: 14.9%
[14]
  viability, T/C: 21%
[15]
  viability, T/C: 20.7%
[16]
  viability, T/C: 21.9%
[17]
  viability, T/C: 21.7%
[18]
  viability, T/C: 19.1%
[19]
  viability, T/C: 13.3%
[20]
  viability, T/C: 13.2%
[21]
  viability, T/C: 12.8%
[22]
  viability, T/C: 13.2%
[23]
  viability, T/C: 14%
[24]
  viability, T/C: 13.1%
[25]
  viability, T/C: 11.5%
[26]
  viability, T/C: 12.1%
[27]
  viability, T/C: 13.8%
[28]
  viability, T/C: 10.6%
[29]
  viability, T/C: 12.6%
[30]
  viability, T/C: 12.2%
[31]
  viability, T/C: 8.97%
[32]
  viability, T/C: 10.1%
[33]
  viability, T/C: 12%
[34]
  viability, T/C: 13.4%
[35]
  viability, T/C: 12.2%
[36]
  viability, T/C: 12.3%
